From PMC6539678 (International Journal of Molecular Sciences, 2019)
Starred links: 1 amine or outer side, 2 acyl side, 3 side chain; linkers in the order of their positions; H or OH if unused. Non-standard residues stand in square brackets, D forms with d. Residues, ends and D or L forms follow the SMILES beside them. Groups on a side chain read outwards from the residue. *: point of attachment. PEG24 = NCCOCCOCCOCCOCCOCCOCCOCCOCCOCCOCCOCCOCCOCCOCCOCCOCCOCCOCCOCCOCCOCCOCCOCCOCCC(=O)O; X1 = O=C([C@H](Cc1ccc(-n2nnc3c2-c2ccccc2N([*:3])Cc2ccccc2-3)cc1)N[*:1])[*:2]; Pteroyl = Nc1nc2ncc(CNc3ccc(C(=O)*)cc3)nc2c(=O)[nH]1; Biotin = O=C1N[C@H]2[C@H](CS[C@H]2CCCCC(=O)*)N1; γGlu = O=C(O)[C@H](CCC(=O)[*:2])N[*:1]; βAla = NCCC(=O)O

Molecular target: T1, folate receptor alpha (FRα) (Homo sapiens, UniProt P15328)
T1 construct: made in house
Test: Biolayer interferometry (BLI) binding of folate and folate-peptide conjugates to FRα
Settings: for kon: pH 7.4, read-out: ka (association rate constant); for koff: pH 7.4, read-out: kd (dissociation rate constant)
Method: All steps performed for purification and refolding of FRα were carried out according to our previous report. However, some different reagents were used. […] The inclusion bodies were solubilized and purified with 8 M urea instead of 6 M guanidine HCl.
The measurement procedure has been reported previously. […] To eliminate errors from non-specific binding of the analyte (FRα) on the SA biosensor chips, reference data with the same concentrations of analyte were also measured.
The obtained binding data were analyzed using a 1:1 local analysis mode applied with association and dissociation step corrections by the BLItz Pro1.2 software (ForteBio). The reference measurements were subtracted during data analysis to determine ka, kd and KD.

[1] = BLI (BLItz), 25 °C, 10 mM PBS pH 7.4, 0.5% BSA, 0.01% Tween 20, ligand immobilized via biotin on streptavidin sensor, 1:1 local analysis, 'Folate' = folate-PEG8-biotin control

T1 sequence (P15328 25-257): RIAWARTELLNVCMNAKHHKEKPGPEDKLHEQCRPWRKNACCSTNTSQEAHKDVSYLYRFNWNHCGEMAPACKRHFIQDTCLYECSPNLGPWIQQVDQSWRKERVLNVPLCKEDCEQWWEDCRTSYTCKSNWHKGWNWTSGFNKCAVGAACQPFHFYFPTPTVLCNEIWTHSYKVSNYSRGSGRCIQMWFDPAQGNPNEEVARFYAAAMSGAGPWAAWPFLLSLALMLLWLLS

C[C@H](NC(=O)[C@H](CCCCN)NC(=O)[C@H](Cc1ccc(-n2nnc3c2-c2ccccc2N(C(=O)CCNC(=O)CC[C@H](NC(=O)c2ccc(NCc4cnc5nc(N)[nH]c(=O)c5n4)cc2)C(=O)O)Cc2ccccc2-3)cc1)NC(=O)[C@H](CCC(=O)O)NC(=O)[C@H](CO)NC(=O)CCOCCOCCOCCOCCOCCOCCOCCOCCOCCOCCOCCOCCOCCOCCOCCOCCOCCOCCOCCOCCOCCOCCOCCOCCNC(=O)CCCC[C@@H]1SC[C@@H]2NC(=O)N[C@@H]21)C(=O)O [SEZKA] ({Biotin-PEG24}-SE[X1]([βAla-γGlu-Pteroyl])KA-OH; C-terminus assumed)
kon: 89100 M⁻¹ s⁻¹
koff: 8.01e-05 s⁻¹

CC[C@H](C)[C@H](NC(=O)[C@H](Cc1ccc(-n2nnc3c2-c2ccccc2N(C(=O)CCNC(=O)CC[C@H](NC(=O)c2ccc(NCc4cnc5nc(N)[nH]c(=O)c5n4)cc2)C(=O)O)Cc2ccccc2-3)cc1)NC(=O)[C@H](Cc1ccccc1)NC(=O)CNC(=O)CCOCCOCCOCCOCCOCCOCCOCCOCCOCCOCCOCCOCCOCCOCCOCCOCCOCCOCCOCCOCCOCCOCCOCCOCCNC(=O)CCCC[C@@H]1SC[C@@H]2NC(=O)N[C@@H]21)C(=O)N[C@@H](CCC(N)=O)C(=O)O [GFZIQ] ({Biotin-PEG24}-GF[X1]([βAla-γGlu-Pteroyl])IQ-OH; C-terminus assumed)
kon: 411000 M⁻¹ s⁻¹
koff: 7.53e-05 s⁻¹

C[C@H](NC(=O)[C@H](CCCCN)NC(=O)[C@H](Cc1ccc(-n2nnc3c2-c2ccccc2N(C(=O)CCNC(=O)CC[C@H](NC(=O)c2ccc(NCc4cnc5nc(N)[nH]c(=O)c5n4)cc2)C(=O)O)Cc2ccccc2-3)cc1)NC(=O)[C@H](CCC(=O)O)NC(=O)[C@H](CO)NC(=O)[C@H](CC(=O)O)NC(=O)CCOCCOCCOCCOCCOCCOCCOCCOCCOCCOCCOCCOCCOCCOCCOCCOCCOCCOCCOCCOCCOCCOCCOCCOCCNC(=O)CCCC[C@@H]1SC[C@@H]2NC(=O)N[C@@H]21)C(=O)N[C@@H](Cc1ccc(O)cc1)C(=O)O [DSEZKAY] ({Biotin-PEG24}-DSE[X1]([βAla-γGlu-Pteroyl])KAY-OH; C-terminus assumed)
fold faster association constant (DSEZKAY relative to SEZKA): 12 fold
fold faster dissociation constant (DSEZKAY relative to SEZKA): 3 fold
fold lower KD (DSEZKAY relative to SEZKA): 4 fold
kon: 1.1e+06 M⁻¹ s⁻¹
koff: 0.000265 s⁻¹

Nc1nc(=O)c2nc(CNc3ccc(C(=O)N[C@@H](CCC(=O)O)C(=O)O)cc3)cnc2[nH]1 [Folate, reference compound]
ka (association rate constant) [1]: 6.74e+06 M⁻¹ s⁻¹
kd (dissociation rate constant) [1]: 0.00769 s⁻¹
